Data as given in patent publication US20240360114A1 (SIRONAX LTD., priority 2021, published 2024).

System: HT-1080 cells
Test: HT-1080 cell viability assay (ferroptosis induced by RSL3, Cell Titer-Glo)
Assay type: cell-based
Conditions: ferroptosis inducer RSL3, 20 hours, ferroptosis inhibitory activity, Table 2
Outline: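 Cells seeded overnight, then co-treated with RSL3 and compound (3-fold, 10-point dilution, top 1.1 μM) for 20 hours. Viability by CellTiter-Glo luminescence, normalized to untreated controls; EC50 from sigmoidal non-linear regression.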

SMILES	EC50 (Homo sapiens, HT-1080, 20 h)	also measured
Cc1ccc(NC2CCC(CN)CC2)cc1C (stereo not drawn) [Compound 282, N-(4-(aminomethyl)cyclohexyl)-3,4-dimethylaniline]	100 to 1000 nM	–
CC(C)c1ccc(NC2CCC(CN)CC2)cc1 (stereo not drawn) [Compound 283, N-(4-(aminomethyl)cyclohexyl)-4-isopropylaniline]	0.1 to 100 nM	–
CC1(N)CCC(Nc2ccc3c(c2)CCCC3)CC1 (stereo not drawn) [Compound 285, 1-methyl-N4-(5,6,7,8-tetrahydronaphthalen-2-yl)cyclohexane-1,4-diamine]	–	EC50: 0.1 to 100 nM
NCC1CCC(Nc2ccc3c(c2)CCCC3)CC1 (stereo not drawn) [Compound 286, N-(4-(aminomethyl)cyclohexyl)-5,6,7,8-tetrahydronaphthalen-2-amine]	0.1 to 100 nM	–
CC(C)(C)c1ccc(NC2CCC(CCCN)CC2)cc1 (stereo not drawn) [Compound 287, N-(4-(3-aminopropyl)cyclohexyl)-4-(tert-butyl)aniline]	0.1 to 100 nM	–
CC(C)(C)c1ccc(NC[C@H]2CC[C@@H](N)CC2)cc1 [Compound 288, N-(((1s, 4s)-4-aminocyclohexyl)methyl)-4-(tert-butyl)aniline]	0.1 to 100 nM	–
CC(N)C1CCC(Nc2ccc(C(C)(C)C)cc2)CC1 (stereo not drawn) [Compound 290, N-(4-(1-aminoethyl)cyclohexyl)-4-(tert-butyl)aniline]	0.1 to 100 nM	–
CCCc1ccc(NC2CCC(CN)CC2)cc1 (stereo not drawn) [Compound 291, N-(4-(aminomethyl)cyclohexyl)-4-propylaniline]	0.1 to 100 nM	–
CCCc1ccc(NC2CCC(CCN)CC2)cc1 (stereo not drawn) [Compound 292, N-(4-(2-aminoethyl)cyclohexyl)-4-propylaniline]	0.1 to 100 nM	–
CCOCCCc1ccc(N[C@H]2CC[C@H](N)CC2)cc1 [Compound 293, (1r,4r)-N1-(4-(3-ethoxypropyl)phenyl)cyclohexane-1,4-diamine]	100 to 1000 nM	–
CCC(C)(C)c1ccc(NC2CCC(N)(CO)CC2)cc1 (stereo not drawn) [Compound 296A, (1-amino-4-((4-(tert-pentyl)phenyl)amino)cyclohexyl)methanol]	0.1 to 100 nM	–
CC(CN1CCCC1)Nc1ccc(C2CCC(C)(C)CC2)cc1 (stereo not drawn) [Compound 297, 4-(4,4-dimethylcyclohexyl)-N-(1-(pyrrolidin-1-yl)propan-2-yl)aniline]	0.1 to 100 nM	–
CCC(C)(C)c1ccc(NC2CCC(O)CC2)cc1 (stereo not drawn) [Compound 298, 4-((4-(tert-pentyl)phenyl)amino)cyclohexan-1-ol]	100 to 1000 nM	–
COCCCOc1cc(NC2CCC(N)CC2)ccc1C(C)(C)C (stereo not drawn) [Compound 300A, N1-(4-(tert-butyl)-3-(3-methoxypropoxy)phenyl)cyclohexane-1,4-diamine]	0.1 to 100 nM	–
COCCOc1cc(NC2CCC(N)CC2)ccc1C(C)(C)C (stereo not drawn) [Compound 301A, N1-(4-(tert-butyl)-3-(2-methoxyethoxy)phenyl)cyclohexane-1,4-diamine]	0.1 to 100 nM	–
COCCCCOc1cc(NC2CCC(N)C2)ccc1C(C)(C)C (stereo not drawn) [Compound 302, N1-(4-(tert-butyl)-3-(4-methoxybutoxy)phenyl)cyclopentane-1,3-diamine]	0.1 to 100 nM	–
CC(C)(C)c1ccc(NC2CCC(CCCCN)CC2)cc1 (stereo not drawn) [Compound 303, N-(4-(4-aminobutyl)cyclohexyl)-4-(tert-butyl)aniline]	0.1 to 100 nM	–
CCc1ccc(NC2CCC(N)CC2)cc1C (stereo not drawn) [Compound 304, N1-(4-ethyl-3-methylphenyl)cyclohexane-1,4-diamine]	100 to 1000 nM	–
N[C@H]1CC[C@@H](CNc2ccc3c(c2)CCC3)CC1 [Compound 307, N-(((1s,4s)-4-aminocyclohexyl)methyl)-2,3-dihydro-1H-inden-5-amine]	0.1 to 100 nM	–
N[C@H]1CC[C@H](CNc2ccc3c(c2)CCC3)CC1 [Compound 308, N-(((1r,4r)-4-aminocyclohexyl)methyl)-2,3-dihydro-1H-inden-5-amine]	0.1 to 100 nM	–

SMILES	EC50 (Homo sapiens, HT-1080, 20 h)	also measured
N[C@H]1CC[C@@H](CNc2ccc3c(c2)CCCC3)CC1 [Compound 309, N-(((1r,4r)-4-aminocyclohexyl)methyl)-5,6,7,8-tetrahydronaphthalen-2-amine]	0.1 to 100 nM	–
N[C@H]1CC[C@H](CNc2ccc3c(c2)CCCC3)CC1 [Compound 310, N-(((1r,4r)-4-aminocyclohexyl)methyl)-5,6,7,8-tetrahydronaphthalen-2-amine]	0.1 to 100 nM	–
Cc1cc(NC2CCC(CN)CC2)cc(C)c1C (stereo not drawn) [Compound 312, N-(4-(aminomethyl)cyclohexyl)-3,4,5-trimethylaniline]	0.1 to 100 nM	–
Cc1cc(NC[C@H]2CC[C@H](N)CC2)cc(C)c1C [Compound 314, N-(((1r,4r)-4-aminocyclohexyl)methyl)-3,4,5-trimethylaniline]	0.1 to 100 nM	–
CCCc1ccc(NC[C@H]2CC[C@H](N)CC2)cc1 [Compound 315, N-(((1r,4r)-4-aminocyclohexyl)methyl)-4-propylaniline]	0.1 to 100 nM	–
Cc1ccc(NC[C@H]2CC[C@H](N)CC2)cc1C [Compound 316, N-(((1r,4r)-4-aminocyclohexyl)methyl)-3,4-dimethylaniline]	0.1 to 100 nM	–
CC(C)(C)c1ccc(NC2CCC(NCCCO)CC2)cc1 (stereo not drawn) [Compound 317, 3-((4-((4-(tert-butyl)phenyl)amino)cyclohexyl)amino)propan-1-ol]	0.1 to 100 nM	–
NC1CCC(Nc2ccc(C3CCC3)cc2)CC1 (stereo not drawn) [Compound 318A, 1-N-(4-cyclobutylphenyl)cyclohexane-1,4-diamine]	–	EC50 (Homo sapiens): 0.1 to 100 nM
CN(C)CCOC1CCC(Nc2ccc(C(C)(C)C)cc2)CC1 (stereo not drawn) [Compound 319A, 4-(tert-butyl)-N-(4-(2-(dimethylamino)ethoxy)cyclohexyl)aniline]	100 to 1000 nM	–
CCOCC(C)(C)c1ccc(NC2CCC(N)CC2)cc1 (stereo not drawn) [Compound 320A, N1-(4-(1-ethoxy-2-methylpropan-2-yl)phenyl)cyclohexane-1,4-diamine]	100 to 1000 nM	–
CC(C)(C)c1ccc(NC2CCC(NCCCCO)CC2)cc1 (stereo not drawn) [Compound 321, 4-((4-((4-(tert-butyl)phenyl)amino)cyclohexyl)amino) butan-1-ol]	100 to 1000 nM	–
CC(C)(C)c1ccc(NC2CCC(CNCCO)CC2)cc1 (stereo not drawn) [Compound 322, 2-(((4-((4-(tert-butyl)phenyl)amino)cyclohexyl)methyl)amino)ethan-1-ol]	0.1 to 100 nM	–
CC(C)(C)c1ccc(NC[C@H]2CC[C@H](NCCO)CC2)cc1 [Compound 323, 2-(((1r,4r)-4-(((4-(tert-butyl)phenyl)amino)methyl)cyclohexyl)amino)ethan-1-ol]	0.1 to 100 nM	–
CC1(C)Cc2ccc(NC3CCC(N)CC3)cc2C1 (stereo not drawn) [Compound 324, N-(2,2-dimethyl-2,3-dihydro-1H-inden-5-yl)cyclohexane-1,4-diamine]	0.1 to 100 nM	–
CC1(C)CC(C)(C)c2cc(NC3CCC(N)CC3)ccc21 (stereo not drawn) [Compound 325A, N1-(1,1,3,3-tetramethyl-2,3-dihydro-1H-inden-5-yl)cyclohexane-1,4-diamine]	0.1 to 100 nM	–
CC(C)(C)c1ccc(NC2CCC(CCCCCN)CC2)cc1 (stereo not drawn) [Compound 326, N-(4-(5-aminopentyl)cyclohexyl)-4-(tert-butyl)aniline]	0.1 to 100 nM	–
CC(C)(C)c1ccc(NC2CCC(N)C(O)C2)cc1 (stereo not drawn) [Compound 327, 2-amino-5-((4-(tert-butyl)phenyl)amino)cyclohexan-1-ol]	100 to 1000 nM	–
CC(C)(C)c1ccc(NCC2CCC(N)C2)cc1 (stereo not drawn) [Compound 328, N-((3-aminocyclopentyl)methyl)-4-(tert-butyl)aniline]	0.1 to 100 nM	–
CCc1cc(NC2CCC(N)CC2)ccc1C(C)(C)C (stereo not drawn) [Compound 329, 1-N-(4-(tert-butyl)-3-ethylphenyl)cyclohexane-1,4-diamine]	0.1 to 100 nM	–
